Measured values reported in patent US10160748B2 (AbbVie Inc., priority 2015, dated 2018).

target: TNFα trimer (Homo sapiens, UniProt P01375); assay: TNFα FP Competitive Binding Assay; conditions: FP binding assay; 20 nM TNFα trimer, 1 nM OregonGreen488 probe; read-out: TNF IC50
Method in brief: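 Fluorescence polarization competition: 20 nM TNFα trimer with 1 nM fluorescein-labelled probe in HEPES/NaCl/EDTA/Triton X-100 buffer, compound in 12-point 1:3 dilutions (final top 338 μM or 100 μM). Incubated 18-24 h, background-subtracted mP read, variable-slope dose-response fitting.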

Chain of TNFα trimer (P01375 77-233 limits assumed): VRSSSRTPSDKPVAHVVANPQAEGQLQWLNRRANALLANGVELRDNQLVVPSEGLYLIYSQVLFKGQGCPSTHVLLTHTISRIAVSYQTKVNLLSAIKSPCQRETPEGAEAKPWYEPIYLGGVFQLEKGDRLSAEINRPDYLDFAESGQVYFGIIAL

Structure (SMILES)	IC50 [nM]
C[C@@H]1CN(c2ncc(-c3ccc4c(=O)n(C)n(Cc5ccccc5OC(F)F)c4c3)cn2)CCN1C(=O)[C@H](O)CC(=O)O [Example 50, (R)-4-((R)-4-(5-(1-(2-(Difluoromethoxy)benzyl)-2-methyl-3-oxo-2,3-dihydro-1H-indazol-6-yl)pyrimidin-2-yl)-2-methylpiperazin-1-yl)-3-hydroxy-4-oxobutanoic acid]	< 1000
C[C@@H]1CN(c2ncc(-c3ccc4c(=O)n(C)n(Cc5ccccc5OC(F)F)c4c3)cn2)CCN1C(=O)[C@@H](O)CC(=O)O [Example 51, (S)-4-((R)-4-(5-(1-(2-(Difluoromethoxy)benzyl)-2-methyl-3-oxo-2,3-dihydro-1H-indazol-6-yl)pyrimidin-2-yl)-2-methylpiperazin-1-yl)-3-hydroxy-4-oxobutanoic acid]	< 1000
CC(=O)N1CCN(c2ncc(-c3ccc4c(=O)n(C)n(Cc5cccc6c5SCC(=O)NC6)c4c3)cn2)C[C@H]1C [Example 52, (R)-9-((6-(2-(4-Acetyl-3-methylpiperazin-1-yl)pyrimidin-5-yl)-2-methyl-3-oxo-2,3-dihydro-1H-indazol-1-yl)methyl)-4,5-dihydrobenzo[f][1,4]thiazepin-3(2H)-one]	1000 to 10000
Cn1c(=O)c2ccc(-c3cnc(C(C)(C)O)nc3)cc2n1Cc1cc(NCc2cccnc2)ccc1Cl [Example 53, 1-(2-Chloro-5-((pyridin-3-ylmethyl)amino)benzyl)-6-(2-(2-hydroxypropan-2-yl)pyrimidin-5-yl)-2-methyl-1H-indazol-3(2H)-one]	1000 to 10000
Cc1ccc(CO)cc1Cn1c2cc(-c3cnc(N4CCOCC4)nc3)ccc2c(=O)n1C [Example 56, 1-(5-(Hydroxymethyl)-2-methylbenzyl)-2-methyl-6-(2-morpholinopyrimidin-5-yl)-1H-indazol-3(2H)-one]	1000 to 10000
[2H]C([2H])([2H])n1c(=O)c2ccc(-c3cnc(N4CCN5C(=O)OC[C@H]5C4)nc3)cc2n1Cc1cc(C)ccc1OC(F)F [Example 57, (R)-7-(5-(1-(2-(Difluoromethoxy)-5-methylbenzyl)-2-(methyl-d3)-3-oxo-2,3-dihydro-1H-indazol-6-yl)pyrimidin-2-yl)hexahydro-3H-oxazolo[3,4-a]pyrazin-3-one]	< 1000
C[C@@H]1CN(c2ncc(-c3cc4c(cc3F)c(=O)n(C)n4Cc3ccccc3OC(F)F)cn2)CCN1C(=O)CO [Example 59, (R)-1-(2-(Difluoromethoxy)benzyl)-5-fluoro-6-(2-(4-(2-hydroxyacetyl)-3-methylpiperazin-1-yl)pyrimidin-5-yl)-2-methyl-1H-indazol-3(2H)-one]	< 1000
C[C@@H]1CN(c2ccc(-c3cc4c(cc3F)c(=O)n(C)n4Cc3ccccc3OC(F)F)cn2)CCN1C(=O)CO [Example 60, (R)-1-(2-(Difluoromethoxy)benzyl)-5-fluoro-6-(6-(4-(2-hydroxyacetyl)-3-methylpiperazin-1-yl)pyridin-3-yl)-2-methyl-1H-indazol-3(2H)-one]	< 1000
CC(=O)N1CCN(c2ncc(-c3ccc4c(=O)n(C)n(Cc5nc(CC#N)ccc5C(F)(F)F)c4c3)cn2)C[C@H]1C [Example 61, (R)-2-(6-((6-(2-(4-Acetyl-3-methylpiperazin-1-yl)pyrimidin-5-yl)-2-methyl-3-oxo-2,3-dihydro-1H-indazol-1-yl)methyl)-5-(trifluoromethyl)pyridin-2-yl)acetonitrile]	< 1000
[2H]C([2H])([2H])n1c(=O)c2ccc(-c3cnc(N4CCN(C(=O)CO)[C@H](C)C4)nc3)cc2n1Cc1cc(C)ccc1OC(F)F [Example 62, (R)-1-(2-(Difluoromethoxy)-5-methylbenzyl)-6-(2-(4-(2-hydroxyacetyl)-3-methylpiperazin-1-yl)pyrimidin-5-yl)-2-(methyl-d3)-1H-indazol-3(2H)-one]	< 1000
[2H]C([2H])([2H])n1c(=O)c2ccc(-c3cnc(N4CCN(C(C)=O)[C@H](C)C4)nc3)cc2n1Cc1cc(C)ccc1OC(F)F [Example 63, (R)-6-(2-(4-Acetyl-3-methylpiperazin-1-yl)pyrimidin-5-yl)-1-(2-(difluoromethoxy)-5-methylbenzyl)-2-methyl-d3-1H-indazol-3(2H)-one]	< 1000
